Assay [1] concerns the target T1, CD44v6 (Homo sapiens, UniProt P16070).
T1 construct: endogenous in cells; host or cells: MCF7; MCF10A
Description: Peptide blocking of EGF-induced Erk phosphorylation in MCF10A cells (Western blot). It counts as cell-based. The following applies: MCF10 cells, serum-starved; peptide 100 ng/ml; EGF 20 ng/ml. The protocol:
3×10^5 were seeded per well of a 6-well plate and serum-starved for 24 hours. Afterwards the medium inside of each well was reduced to 1 ml and the respective peptide (v6 (both peptides of SEQ ID No.: 2 and 6 were tested), or ctrl peptide) was added at a concentration of 100 ng/ml. The cells then were incubated together with the peptide at 37° C. for 5 mins. Ligand concentration for all peptide blocking experiments was 20 ng/ml.
To assay protein expression via Western blot cells were washed 1× with PBS and afterwards lysed in 2×Laemmli sample buffer (160 mM Tris-HCl pH 6.8, 4% SDS, 16% glycerol, 0.1M DTT, 0.01% bromphenol blue). The sample was sheared through a 26 gauge needle. In succession the lysates were boiled for 5 mins at 99° C. in order to denature the proteins in the sample and then spun down at 10 000 rmp for 1 min Eventually the samples were loaded onto an SDS-PAGE gel.
To test whether CD44v6 acts as a co-receptor in MCF7 or MCF10A cells, a peptide blocking experiment using peptides of SEQ ID NO: 6 was conducted. The cells were serum-starved for 24 h and then pre-incubated with a v6 peptide or an unspecific control peptide. Then, the cells were induced with EGF or HGF as a control. As a read-out for ErbB-activation, the phosphorylation of the Erk-kinase was used.
(Immunoblotting shows a protein as a band on a membrane.)

In assay [2] the test system is L3.6pl cells. The assay is described as follows: Human orthotopic pancreatic cancer model, L3.6pl cells in nude mice, treatment from day 7. It counts as in vivo, mouse. To be noted: nude mice. Summed up:
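L3.6pl pancreatic carcinoma cells (passage 24-26) were injected orthotopically into the pancreas of male nude mice. From day 7, groups of 15 received i.p. human v6 peptide or rat control peptide (20 μg, 14mer or 5mer), three times weekly for 21 days. Animals were killed two days after the last dose; tumors were analyzed by P-Met, Met, CD31 and caspase immunostaining.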

Where [3] appears, read: orthotopic L3.6pl, 20 μg i.p. three times per week.

The values that follow come from patent US9586994B2, “CD44V6-derived peptides for treating breast cancer” (KARLSRUHER INSTITUT FÜR TECHNOLOGIE, priority 2012, dated 2017).

T1 sequence (P16070 21-742): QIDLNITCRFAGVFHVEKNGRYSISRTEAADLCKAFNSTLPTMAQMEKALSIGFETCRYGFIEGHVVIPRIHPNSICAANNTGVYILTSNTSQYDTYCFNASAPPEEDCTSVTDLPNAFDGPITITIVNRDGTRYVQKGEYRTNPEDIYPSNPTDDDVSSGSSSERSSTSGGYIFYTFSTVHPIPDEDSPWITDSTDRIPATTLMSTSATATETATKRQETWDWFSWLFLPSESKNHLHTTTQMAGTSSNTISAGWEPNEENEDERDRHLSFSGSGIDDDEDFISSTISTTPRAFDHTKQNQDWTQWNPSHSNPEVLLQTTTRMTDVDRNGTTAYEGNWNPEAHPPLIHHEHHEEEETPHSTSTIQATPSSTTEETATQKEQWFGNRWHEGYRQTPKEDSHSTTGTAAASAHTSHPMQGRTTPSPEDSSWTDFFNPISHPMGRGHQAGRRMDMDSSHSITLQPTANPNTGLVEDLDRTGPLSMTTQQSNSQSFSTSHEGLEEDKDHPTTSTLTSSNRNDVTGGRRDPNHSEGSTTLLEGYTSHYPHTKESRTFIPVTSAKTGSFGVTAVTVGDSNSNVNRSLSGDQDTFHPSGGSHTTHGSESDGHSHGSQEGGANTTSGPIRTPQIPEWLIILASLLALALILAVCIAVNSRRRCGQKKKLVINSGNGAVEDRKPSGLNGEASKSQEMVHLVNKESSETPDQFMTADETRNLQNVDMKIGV

As to “KEQWFGNRWHEGYR [SEQ ID NO: 6, human CD44v6 14mer peptide]”, in assay [1], the “EGF-induced activation of the ErbB receptors (Erk phosphorylation)” value was “could be blocked”. In addition, the “Tumor angiogenesis (CD31 staining, vessel number and vessel size)” value in assay [2] (orthotopic L3.6pl tumors) is “decreased angiogenesis as exemplified by a reduced vessel number and vessel size”. In assay [2] (setting [3]), the “Metastasis formation (liver)” value is on record as “completely inhibited metastasis formation within the liver” and the “Outgrowth of the primary tumor in the pancreas” value is on record as “strongly repressed”. In assay [2] (orthotopic L3.6pl, 20 μg i.p. three times per week for three weeks), the “Met activation in the tumor (phospho-Met immunofluorescence)” value is on record as “completely repressed Met activation”.
